# Test results published in US4578489A (priority 1982, dated 1986).
# Where two headings read alike, the source gives them in different places.
# Tests used:
# Alternaria alternata = experiment: Minimum inhibitory concentration against fungi, agar incorporation test, strain N; assay type: cell-based; settings: malt extract/agar
# How it was run: (§1)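 Malt extract agar with test compound at final 2, 5, 10, 50, 100 mg/liter; fungi spotted dropwise; MIC = lowest mg/liter preventing growth.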
# Pseudomonas aeruginosa = experiment: Minimum inhibitory concentration against bacteria, strain B; assay type: cell-based; settings: 24 hours at 30° C.; tested at 100 and 300 mg/liter
# How it was run: (§2)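 Overnight cultures diluted 1/1000 in saline, then 1/1000 again into Caso peptone bouillon. Compounds added at 100 and 300 mg/liter; incubation 24 hours at 30° C. with shaking, then growth judged by turbidity.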
# Aspergillus phoenicis = experiment: Minimum inhibitory concentration against fungi, agar incorporation test, strain L; assay type: cell-based; settings: malt extract/agar
# How it was run: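 Agar incorporation test in malt extract agar with compound at final 2, 5, 10, 50 and 100 mg/liter, inoculated dropwise with fungus; value is concentration (mg/liter) inhibiting growth.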
# [1] = tested on: Enteromorpha intestinalis; experiment: Action against Enteromorpha intestinalis: destruction (minimum killing concentration); assay type: in vivo; settings: 4 hours in seawater, then 6-8 weeks in fresh seawater
# Protocol: (§3) The action against the green alga Enteromorpha, which is the most important in seawter fouling, is investigated in sterile-filtered seawater containing an Erd-Schreiber solution. This solution is composed of a nutrient extract, phosphate and nitrate. The incubation of Enteromorpha intestinalis is carried out in a light thermostat at 18° C. under an alternation of 14 hours of light and 10 hours of darkness.
# The algae which have been cultured in this way are exposed to the products under investigation for a short time (4 hours) in seawater. The minimum killing concentration (MKC) is determined by taking the algae out of the seawater containing a specific quantity of algicide, after the treatment time in the latter, washing the algae and investigating growth or mortality after incubation in fresh seawater for a further period of 6-8 weeks.
# The minimum killing concentration (MKC) indicates the amount of substance required to cause such damage to the algae within a specific time that they can no longer recover in fresh seawater and die out.
# Enterobacter aerogenes = experiment: Minimum inhibitory concentration against bacteria, strain C; assay type: cell-based; settings: 24 hours at 30° C.; tested at 100 and 300 mg/liter
# How it was run: as §2
# [2] = tested on: Cladosporium cladosporioides; experiment: Minimum inhibitory concentration against fungi, agar incorporation test, strain O; assay type: cell-based; settings: malt extract/agar
# How it was run: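 Compounds incorporated into malt extract agar at final concentrations of 2, 5, 10, 50 and 100 mg/liter, with fungal traces added dropwise. Value is the concentration (mg/liter) required to inhibit fungal growth.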
# Aureobasidium pullulans [3] = experiment: Growth on wood; set-up: key: 1: growth on the wood; 2: slight growth on the wood; 3: no growth on the wood; 4: no growth on the wood and an inhibitory zone; settings: 28°, 4 weeks
# Protocol: Small blocks of spruce wood, 7×10×10 mm in size, are dried in vacuo. The small blocks are then vacuum-impregnated by keeping them, in vacuo, in 100 ml of distilled water+biocide for 30 minutes and then subjecting them to a pressure treatment (2 atmospheres gauge by means of compressed air) for 18 hours in the water. The pieces of wood treated in this way are first subjected to leaching in running water and are then dried.
# The dried pieces of wood are placed on potato/glucose agar and the wood, as well as the surrounding agar, is inoculated with 0.1 ml of a spore suspension of Aureobasidium pullulans. After incubation at 28° for 4 weeks, the growth is evaluated in accordance with the following rating: […]
# Candida albicans = experiment: Minimum inhibitory concentration against fungi, agar incorporation test, strain P; assay type: cell-based; settings: malt extract/agar
# How it was run: as §1
# Aspergillus niger = experiment: Minimum inhibitory concentration against fungi, agar incorporation test, strain K; assay type: cell-based; settings: malt extract/agar
# How it was run: as §1
# Penicillium funiculosum = experiment: Minimum inhibitory concentration against fungi, agar incorporation test, strain M; assay type: cell-based; settings: malt extract/agar
# How it was run: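 Compounds incorporated into malt extract agar at final 2, 5, 10, 50 and 100 mg/liter, then inoculated dropwise with fungus. Value is the concentration (mg/liter) inhibiting growth.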
# [4] = tested on: Enteromorpha intestinalis; experiment: Action against Enteromorpha intestinalis: inhibitory concentration (MIC); assay type: in vivo; settings: seawater containing biocide for entire test; concentration tested 0.5 mg/liter
# Protocol: as §3
# For determining the inhibitory concentration (MIC), the algae are kept in seawater containing biocide for the entire duration of the test (concentration tested: 0.5 mg/liter).
# Chaetomium globosum = experiment: Minimum inhibitory concentration against fungi, agar incorporation test, strain S; assay type: cell-based; settings: malt extract/agar
# How it was run: as §1
# Artemia salina = experiment: Action against Artemia salina nauplii; assay type: in vivo; set-up: key: 0: no change; 1: slight change; 1-2: animals are attacked; 2: animals are strongly attacked; 2-3: animals are nearly all dead; 3: animals are all dead
# Protocol: The eggs, which are available commercially, are caused to hatch by vigorous aeration. When 2-3 days old, the nauplii are exposed to the products at various concentrations (concentrations tested: 2.5; 1; 0.5 and 0.25 mg/liter) in synthetic seawater, and are observed over a prolonged period of time.
# Serratia marcencens = experiment: Minimum inhibitory concentration against bacteria, strain D; assay type: cell-based; settings: 24 hours at 30° C.; tested at 100 and 300 mg/liter
# How it was run: as §2
# [5] = tested on: Alcaligenes denitrificans; experiment: Minimum inhibitory concentration against bacteria, strain E; assay type: cell-based; settings: 24 hours at 30° C.; tested at 100 and 300 mg/liter
# How it was run: as §2
# Aureobasidium pullulans [6] = experiment: Minimum inhibitory concentration against fungi, agar incorporation test, strain R; assay type: cell-based; settings: malt extract/agar
# How it was run: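 Compounds incorporated in malt extract agar at final 2, 5, 10, 50 and 100 mg/liter. Agar inoculated dropwise with traces of fungus. Value is the concentration (mg/liter) needed to inhibit growth.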
# Chlorella vulgaris = experiment: Action against algae: Chlorella vulgaris; assay type: cell-based; set-up: key: --: no growth on the agar, 3 ppm have destroyed the algae in 6 hours; settings: 3 mg/liter
# How it was run: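 14-day cultures diluted 1/200 in nutrient medium received compound at 3 mg/liter final. After 6 h, samples were spotted on algae/agar for algicidal action; growth inhibition in medium and killing on agar assessed visually after 14 days under 14 h light/10 h dark.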
# [7] = tested on: mixed culture of bacteria; assay type: cell-based; set-up: key: +: growth, no destruction; (+): growth less than that of control (>10 colonies), slight destruction; (-): slight growth (1-10 colonies); -: no growth, destruction
# Endomyces geotrichum = experiment: Minimum inhibitory concentration against fungi, agar incorporation test, strain Q; assay type: cell-based; settings: malt extract/agar
# How it was run: as §1
# Bacillus subtilis = experiment: Minimum inhibitory concentration against bacteria, strain F; assay type: cell-based; settings: 24 hours at 30° C.; tested at 100 and 300 mg/liter
# How it was run: as §2
# Proteus vulgaris = experiment: Minimum inhibitory concentration against bacteria, strain A; assay type: cell-based; settings: 24 hours at 30° C.; tested at 100 and 300 mg/liter
# How it was run: as §2
structure (smiles),measurement,setting,value
"CCCCCCCCCCCCCC[N+](C)(C)Cc1ccccc1.CCC[CH2][Sn-]([Cl])([Cl])([CH2]CCC)[CH2]CCC [Example 2, dimethyl-benzyl-tetradecylammonium tributyldichlorostannate-(IV)]","MIC against fungi, strain N",Alternaria alternata,2 µg/mL
same,"MIC against bacteria, strain B",Pseudomonas aeruginosa,100 µg/mL
same,"MIC against fungi, strain L",Aspergillus phoenicis,2 µg/mL
same,"Destruction, 5 mg/liter",[1],yes
same,"MIC against bacteria, strain C",Enterobacter aerogenes,100 µg/mL
same,"MIC against fungi, strain O",[2],2 µg/mL
same,"growth on wood, leached for 5 days",Aureobasidium pullulans [3]; 0.01 % in H2 O,4
same,"growth on wood, not leached",Aureobasidium pullulans [3]; 0.01 % in H2 O,4
same,"growth on wood, leached for 5 days",Aureobasidium pullulans [3]; 0.05 % in H2 O,4
same,"growth on wood, not leached",Aureobasidium pullulans [3]; 0.05 % in H2 O,4
same,"MIC against fungi, strain P",Candida albicans,5 µg/mL
same,"MIC against fungi, strain K",Aspergillus niger,2 µg/mL
same,"MIC against fungi, strain M",Penicillium funiculosum,2 µg/mL
same,MIC,[4],0.5 µg/mL
same,"MIC against fungi, strain S",Chaetomium globosum,2 µg/mL
same,Action against Artemia salina,"Artemia salina; 0,5 mg/l, 6 hours",1-2
same,Action against Artemia salina,"Artemia salina; 0,5 mg/l, 24 hours",2-3
same,Action against Artemia salina,"Artemia salina; 0,5 mg/l, 48 hours",3
same,Action against Artemia salina,"Artemia salina; 0,25 mg/l, 6 hours",0-1
same,Action against Artemia salina,"Artemia salina; 0,25 mg/l, 24 hours",2
same,Action against Artemia salina,"Artemia salina; 0,25 mg/l, 48 hours",2-3
same,Action against Artemia salina,"Artemia salina; 1 mg/l, 6 hours",2
same,Action against Artemia salina,"Artemia salina; 1 mg/l, 24 hours",3
same,Action against Artemia salina,"Artemia salina; 1 mg/l, 48 hours",3
same,Action against Artemia salina,"Artemia salina; 2,5 mg/l, 6 hours",2-3
same,Action against Artemia salina,"Artemia salina; 2,5 mg/l, 24 hours",3
same,Action against Artemia salina,"Artemia salina; 2,5 mg/l, 48 hours",3
same,"MIC against bacteria, strain D",Serratia marcencens,100 µg/mL
same,"MIC against bacteria, strain E",[5],100 µg/mL
same,"MIC against fungi, strain R",Aureobasidium pullulans [6],2 µg/mL
same,Growth on the agar (algae-destroying action),"Chlorella vulgaris; 6 hours exposure, 14 days incubation",--
same,Growth in the medium (growth inhibition),Chlorella vulgaris; 14 days,--
same,Growth (destruction of a mixed culture of bacteria),"[7]; 5 mg/l, culture diluted 1/1000 in Tyrode",+
same,Growth (destruction of a mixed culture of bacteria),"[7]; 5 mg/l, culture diluted 1/10000 in Tyrode",+
same,Growth (destruction of a mixed culture of bacteria),"[7]; 10 mg/l, culture diluted 1/1000 in Tyrode",+
same,Growth (destruction of a mixed culture of bacteria),"[7]; 10 mg/l, culture diluted 1/10000 in Tyrode",+
same,Growth (destruction of a mixed culture of bacteria),"[7]; 30 mg/l, culture diluted 1/1000 in Tyrode","(+) (growth less than that of control (>10 colonies), slight destruction)"
same,Growth (destruction of a mixed culture of bacteria),"[7]; 30 mg/l, culture diluted 1/10000 in Tyrode",-
same,Growth (destruction of a mixed culture of bacteria),"[7]; 60 mg/l, culture diluted 1/1000 in Tyrode","(+) (growth less than that of control (>10 colonies), slight destruction)"
same,Growth (destruction of a mixed culture of bacteria),"[7]; 60 mg/l, culture diluted 1/10000 in Tyrode",-
same,Growth (destruction of a mixed culture of bacteria),"[7]; 100 mg/l, culture diluted 1/1000 in Tyrode",(-) (slight growth (1-10 colonies))
same,Growth (destruction of a mixed culture of bacteria),"[7]; 100 mg/l, culture diluted 1/10000 in Tyrode",-
same,"MIC against fungi, strain Q",Endomyces geotrichum,5 µg/mL
same,"MIC against bacteria, strain F",Bacillus subtilis,100 µg/mL
same,"MIC against bacteria, strain A",Proteus vulgaris,100 µg/mL
